From PubChem BioAssay AID1259407 (Chemical Carcinogenesis Research Information System (CCRIS), 2018) come the findings set out here.

Activity calls are given as the source filed them. No rule for the calls is given here.

For this data set, the system named is CCRIS mutagenicity, Ames/micronucleus/aberration tests. In words: CCRIS mutagenicity studies.

With `c1ccc2c(c1)cc1ccc3cc4ccccc4c4ccc2c1c34`, the mutagenic call was “inactive; negative” (Test System: AMES SALMONELLA TYPHIMURIUM, Strain/Indicator: TA98, Metabolic Activation: NONE, Method: STANDARD PLATE); “active; positive” (Test System: AMES SALMONELLA TYPHIMURIUM, Strain/Indicator: TA98, Metabolic Activation: RAT, LIVER, S-9, AROCLOR 1254, Method: STANDARD PLATE); “inactive; negative” (Test System: AMES SALMONELLA TYPHIMURIUM, Strain/Indicator: TA100, Metabolic Activation: NONE, Method: STANDARD PLATE); “active; positive” (Test System: AMES SALMONELLA TYPHIMURIUM, Strain/Indicator: TA100, Metabolic Activation: RAT, LIVER, S-9, AROCLOR 1254, Method: STANDARD PLATE); “inactive; negative” (Test System: AMES SALMONELLA TYPHIMURIUM, Strain/Indicator: TA1537, Metabolic Activation: NONE, Method: STANDARD PLATE); “inactive; negative” (Test System: AMES SALMONELLA TYPHIMURIUM, Strain/Indicator: TA1537, Metabolic Activation: RAT, LIVER, S-9, AROCLOR 1254, Method: STANDARD PLATE). Also, the mutagenic call (Test System: AMES SALMONELLA TYPHIMURIUM, Strain/Indicator: TA1538, Metabolic Activation: NONE, Method: STANDARD PLATE) is “inactive; negative”; the mutagenic call (Test System: AMES SALMONELLA TYPHIMURIUM, Strain/Indicator: TA1538, Metabolic Activation: RAT, LIVER, S-9, PHENOBARBITAL, Method: STANDARD PLATE) is “active; positive”; the mutagenic call (Test System: HUMAN H1A1V2 CELLS, Strain/Indicator: TK LOCUS, Metabolic Activation: NONE, Method: SUSPENSION/PLATE) is “active; positive”.

As for `S=C(NC1CCCCC1)NC1CCCCC1`, the mutagenic call is “inactive; negative” (Test System: AMES SALMONELLA TYPHIMURIUM, Strain/Indicator: TA97, Metabolic Activation: HAMSTER, LIVER, S-9, AROCLOR 1254 (10 OR 30%), Method: PREINCUBATION); “inactive; negative” (Test System: AMES SALMONELLA TYPHIMURIUM, Strain/Indicator: TA97, Metabolic Activation: NONE, Method: PREINCUBATION); “inactive; negative” (Test System: AMES SALMONELLA TYPHIMURIUM, Strain/Indicator: TA97, Metabolic Activation: RAT, LIVER, S-9, AROCLOR 1254 (10%), Method: PREINCUBATION); “inactive; negative” (Test System: AMES SALMONELLA TYPHIMURIUM, Strain/Indicator: TA97, Metabolic Activation: RAT, LIVER, S-9, AROCLOR 1254 (30%), Method: PREINCUBATION); “inactive; negative” (Test System: AMES SALMONELLA TYPHIMURIUM, Strain/Indicator: TA98, Metabolic Activation: HAMSTER, LIVER, S-9, AROCLOR 1254 (10 OR 30%), Method: PREINCUBATION); “inactive; negative” (Test System: AMES SALMONELLA TYPHIMURIUM, Strain/Indicator: TA98, Metabolic Activation: NONE, Method: PREINCUBATION). For the same molecule, the mutagenic call runs as follows: (Test System: AMES SALMONELLA TYPHIMURIUM, Strain/Indicator: TA98, Metabolic Activation: RAT, LIVER, S-9, AROCLOR 1254 (10 OR 30%), Method: PREINCUBATION) “inactive; negative”; (Test System: AMES SALMONELLA TYPHIMURIUM, Strain/Indicator: TA100, Metabolic Activation: HAMSTER, LIVER, S-9, AROCLOR 1254 (10 OR 30%), Method: PREINCUBATION) “inactive; negative”; (Test System: AMES SALMONELLA TYPHIMURIUM, Strain/Indicator: TA100, Metabolic Activation: NONE, Method: PREINCUBATION) “inactive; negative”; (Test System: AMES SALMONELLA TYPHIMURIUM, Strain/Indicator: TA100, Metabolic Activation: RAT, LIVER, S-9, AROCLOR 1254 (10 OR 30%), Method: PREINCUBATION) “inactive; negative”; (Test System: AMES SALMONELLA TYPHIMURIUM, Strain/Indicator: TA1535, Metabolic Activation: HAMSTER, LIVER, S-9, AROCLOR 1254 (10 OR 30%), Method: PREINCUBATION) “inactive; negative”; (Test System: AMES SALMONELLA TYPHIMURIUM, Strain/Indicator: TA1535, Metabolic Activation: NONE, Method: PREINCUBATION) “inactive; negative”. For the same molecule, the mutagenic call is “inactive; negative” (Test System: AMES SALMONELLA TYPHIMURIUM, Strain/Indicator: TA1535, Metabolic Activation: RAT, LIVER, S-9, AROCLOR 1254 (10 OR 30%), Method: PREINCUBATION); “inactive; negative” (Test System: AMES SALMONELLA TYPHIMURIUM, Strain/Indicator: TA1537, Metabolic Activation: HAMSTER, LIVER, S-9, AROCLOR 1254 (10%), Method: PREINCUBATION); “inactive; negative” (Test System: E. COLI, Strain/Indicator: WP2 UVRA, Metabolic Activation: HAMSTER, LIVER, S-9, AROCLOR 1254, Method: STANDARD PLATE); “inactive; negative” (Test System: E. COLI, Strain/Indicator: WP2 UVRA, Metabolic Activation: HAMSTER, LIVER, S-9, Method: STANDARD PLATE); “inactive; negative” (Test System: E. COLI, Strain/Indicator: WP2 UVRA, Metabolic Activation: MOUSE, LIVER, S-9, AROCLOR 1254, Method: STANDARD PLATE); “inactive; negative” (Test System: E. COLI, Strain/Indicator: WP2 UVRA, Metabolic Activation: MOUSE, LIVER, S-9, Method: STANDARD PLATE). The mutagenic call runs as follows: (Test System: E. COLI, Strain/Indicator: WP2 UVRA, Metabolic Activation: NONE, Method: STANDARD PLATE) “inactive; negative”; (Test System: E. COLI, Strain/Indicator: WP2 UVRA, Metabolic Activation: RAT, LIVER, S-9, AROCLOR 1254, Method: STANDARD PLATE) “inactive; negative”; (Test System: E. COLI, Strain/Indicator: WP2 UVRA, Metabolic Activation: RAT, LIVER, S-9, Method: STANDARD PLATE) “inactive; negative”; (Test System: MOUSE LYMPHOMA, Strain/Indicator: L5178Y (TK+/TK-), Metabolic Activation: RAT, LIVER, S-9, AROCLOR 1254, Method: SUSPENSION/PLATE) “inactive; negative”.
